“Also recorded” adds a separate entry of the source. Structures can show the parent of a compound that is named as a salt. Where two headings read alike, the source gives them in different places.
Tests used:
[1] = Hygroscopicity noted on isolation of the hydrochloride salt; type: physicochemical; conditions: salt precipitated from DCM with HCl in Et2O
Description: 5-(4-acetyl-[1,4]diazepan-1-yl)-pentanoic acid [5-(4-methoxy-phenyl)-1H-pyrazol-3-yl]-amide (1.05 g, 2.54 mmol) was dissolved in a minimum amount of DCM (5 mL) and cooled to 0° C. HCl (2.0 M in Et20, 1.4 mL, 2.89 mmol) was added and the mixture stirred at rt until precipitation of the salt was complete (about 10 min.). The solid was filtered, washed with Et2O several times, and dried in a dessicator to yield 1.09 g of the hydrochloride salt (2.42 mmol, 95% yield). […] MS (ES+): 414.26 (M+H)^+.

[2] = Hygroscopicity test / Dynamic Vapor Sorption (DVS) of hydrochloride salt crystal forms; type: physicochemical; conditions: for Water absorbed eventually: 90% RH
Description: Evidence of a hydrochloride hydrate was not observed after the hygroscopicity test.
Dynamic Vapor Sorption (DVS) was done at 25-26° C.

COc1ccc(-c2cc(NC(=O)CCCCN3CCCN(C(C)=O)CC3)[nH]n2)cc1 (as salt: hydrochloric acid salt) [5-(4-Acetyl-[1,4]diazepan-1-yl)-pentanoic acid [5-(4-methoxy-phenyl)-2H-pyrazol-3-yl]-amide]
melting point: 185 °C

COc1ccc(-c2cc(NC(=O)CCCCN3CCCN(C(C)=O)CC3)n[nH]2)cc1.Cl [Compound I, 5-(4-acetyl-1,4-diazepan-1-yl)-N-(5-(4-methoxyphenyl)-1H-pyrazol-3-yl)pentanamide hydrogen chloride]
Hygroscopicity of the sample [1]: extreme hygroscopicity
melting point: 132 to 133 °C

COc1ccc(-c2cc(NC(=O)CCCCN3CCCN(C(C)=O)CC3)[nH]n2)cc1 [Crystal Form V, 5-(4-Acetyl-[1,4]diazepan-1-yl)-pentanoic acid [5-(4-methoxy-phenyl)-2H-pyrazol-3-yl]-amide]
Hygroscopicity (in words), Crystal Form Table [2]: Hygroscopic
Water at RH 50% [2]: 7%

COc1ccc(-c2cc(NC(=O)CCCCN3CCCN(C(C)=O)CC3)[nH]n2)cc1 [Form I, 5-(4-acetyl-1,4-diazepan-1-yl)-N-(5-(4-methoxyphenyl)-1H-pyrazol-3-yl)pentanamide hydrochloric salt Form I]
Behaviour of absorbed water on decreasing RH [2]: loses it without significant hysteresis on decreasing RH; also recorded: loses the water as RH decreases
Evidence of a hydrochloride hydrate after the hygroscopicity test [2]: not observed
Hygroscopicity (in words) [2]: relatively non-hygroscopic
Moisture gained ([2]; 70-100% RH): at least 2%
Water absorbed eventually ([2]; DVS at 25-26° C.): up to 2%
Relative humidity (RH) at which the form picks up moisture ([2]; DVS at 25-26° C.): about 50%
Moisture gained when equilibrated ([2]; RH less than or equal to 70%): about 0.5%
Hygroscopicity (in words), Crystal Form Table ([2]; listed as Crystal Form I): Non-hygroscopic

COc1ccc(-c2cc(NC(=O)CCCCN3CCCN(C(C)=O)CC3)[nH]n2)cc1 [Form II, 5-(4-acetyl-1,4-diazepan-1-yl)-N-(5-(4-methoxyphenyl)-1H-pyrazol-3-yl)pentanamide hydrochloric salt Form II]
Hygroscopicity (in words) [2]: non-hygroscopic
Water absorbed eventually ([2]; DVS at 25-26° C.): up to 7%
Relative humidity (RH) at which the form picks up moisture ([2]; DVS at 25-26° C.): about 20%
Water held at low RH ([2]; RH 0%, DVS at 25-26° C.): 2%
Water at RH 50% ([2]; listed as Crystal Form II): hygroscopic (5%
Hygroscopicity (in words), Crystal Form Table ([2]; listed as Crystal Form II): Somewhat

COc1ccc(-c2cc(NC(=O)CCCCN3CCCN(C(C)=O)CC3)[nH]n2)cc1 [Form III, 5-(4-Acetyl-[1,4]diazepan-1-yl)-pentanoic acid [5-(4-methoxy-phenyl)-2H-pyrazol-3-yl]-amide]
Hygroscopicity (in words), Crystal Form Table ([2]; listed as Crystal Form III): Hygroscopic

From patent publication US20090264648A1, “SYNTHESIS OF PYRAZOLES” (WYETH, priority 2008, published 2009)
